Measured values as given in EP3932409A1 (priority 2020, dated 2022).

Experiments:
SARS-CoV-2 [1] = assay: SARS-CoV-2 cell monolayer protection assay; type: cell-based, SARS-CoV-2 strain NL/2020; conditions: Severe acute respiratory syndrome coronavirus 2, Vero C1008, 72 h; for EC100: read-out: concentration protecting completely / around 100% of the cell monolayer
SARS-CoV-2 [2] = assay: Intracellular viral RNA quantitation (RT-qPCR), with time of addition; type: cell-based, SARS-CoV-2 strain NL/2020
[3] = test system: retroviral vectors pseudotyped with SARS-CoV-2 Spike protein (SARS2pp); assay: microbe, parasite or virus in culture; type: cell-based; conditions: Severe acute respiratory syndrome coronavirus 2, Vero C1008, 48 h
Vero-E6 cells = conditions: uninfected Vero-E6 cells, 200 to 3.125 µM, crystal violet
in vitro = conditions: human, huh7-lunet#3 cells
SARS-CoV-2 [4] = type: cell-based, SARS-CoV-2 strain NL/2020
229E-GFP = assay: microbe, parasite or virus in culture; type: cell-based, human coronavirus; conditions: for EC90 / EC50: 72 h; for EC50: read-out: ECso; for infection by 229E-GFP: result in words, micromolar concentrations

Row | SMILES | EC50 (SARS-CoV-2 [1]) | EC100 (SARS-CoV-2 [1]) | viral RNA accumulation (SARS-CoV-2 [2]) | EC50 [3] | cytotoxicity in Vero-E6 cells (Vero-E6 cells) | CC50 at 72 h (in vitro) | progeny virus production (TCID50) (SARS-CoV-2 [4]) | EC90 (229E-GFP) | EC50 (229E-GFP) | infection by 229E-GFP (229E-GFP)
1 | CC[C@H]1OC(=O)[C@H](C)[C@@H](O[C@H]2C[C@@](C)(OC)[C@@H](O)[C@H](C)O2)[C@H](C)[C@@H](O[C@@H]2O[C@H](C)C[C@H](N(C)C)[C@H]2O)[C@](C)(O)C[C@@H](C)CN(C)[C@H](C)[C@@H](O)[C@]1(C)O [Azithromycin] | 75 µM | 200 µM | significantly reduced viral RNA accumulation in a dose dependent manner | ~30 µM | not toxic at any of the tested concentrations | > 50 µM | undetectable levels | 18.8 ± 2.5 µM | 6.1 ± 2.4 µM | blocked viral infection
2 | CO/N=C(\C(=O)N[C@@H]1C(=O)N2C(C(=O)O)=C(COC(N)=O)CS[C@H]12)c1ccco1 [Cefuroxime] | – | – | – | – | – | > 50 µM | – | > 50 µM | > 50 µM | not significantly affected
3 | CC[C@H]1OC(=O)[C@H](C)[C@@H](O[C@H]2C[C@@](C)(OC)[C@@H](O)[C@H](C)O2)[C@H](C)[C@@H](O[C@@H]2O[C@H](C)C[C@H](N(C)C)[C@H]2O)[C@](C)(OC)C[C@@H](C)C(=O)[C@H](C)[C@@H](O)[C@]1(C)O [Clarithromycin] | 60 µM | 100 µM | significantly reduced viral RNA accumulation in a dose dependent manner | ~30 µM | – | > 50 µM | undetectable levels | 46.3 ± 4.8 µM | 17.3 ± 9.2 µM | blocked viral infection
4 | CC[C@H]1OC(=O)[C@H](C)[C@@H](O[C@H]2C[C@@](C)(OC)[C@@H](O)[C@H](C)O2)[C@H](C)[C@@H](O[C@@H]2O[C@H](C)C[C@H](N(C)C)[C@H]2O)[C@](C)(O)C[C@@H](C)C(=O)[C@H](C)[C@@H](O)[C@]1(C)O [Erithromycin, Erythromycin] | – | – | – | – | – | > 50 µM | – | > 50 µM | > 50 µM | not significantly affected
5 | CC[C@H]1OC(=O)[C@H](C)[C@@H](O[C@H]2C[C@@](C)(OC)[C@@H](O)[C@H](C)O2)[C@H](C)[C@@H](O[C@@H]2O[C@H](C)C[C@H](N(C)C)[C@H]2O)[C@](C)(O)C[C@@H](C)/C(=N\OC)[C@H](C)[C@@H](O)[C@]1(C)O [Lexithromycin] | 25 µM | 50 µM | significantly reduced viral RNA accumulation in a dose dependent manner | ~18 µM | the most toxic compound | > 50 µM | undetectable levels | 16.3 ± 6 µM | 3 ± 1.4 µM | blocked viral infection
